{"source": "patent US20240217968A1", "about": "“PHARMACEUTICAL COMPOUND” (DUKE STREET BIO LIMITED, priority 2021, published 2024)", "data": [{"molecular_target": "T1, recombinant human Flag-tagged PARP7 (amino acids 456-657) (Homo sapiens, UniProt Q7Z3E1)", "T1 construct": "recombinant human Flag-tagged PARP7 (amino acids 456-657)", "T1 sequence (Q7Z3E1 456-657)": "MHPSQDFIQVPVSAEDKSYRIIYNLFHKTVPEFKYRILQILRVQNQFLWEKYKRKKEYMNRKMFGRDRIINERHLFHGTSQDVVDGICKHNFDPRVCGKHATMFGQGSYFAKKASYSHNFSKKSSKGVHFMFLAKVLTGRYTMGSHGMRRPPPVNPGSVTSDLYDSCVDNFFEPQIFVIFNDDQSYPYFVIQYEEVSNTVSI", "test": "PARP7 biochemical DELFIA assay (auto-MARylation)", "conditions": "DELFIA readout, IC50 class", "in_short": "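Flag-PARP7 (456-657), 12.5-37.5 nM stock, captured on anti-FLAG wells, preincubated 30 min with compound, then auto-MARylated with biotin-NAD+ (15 μM stock) in HEPES pH 7.5/NaCl/DTT/BSA/Tween for 2-3 h at room temperature. NAD+ quench; Eu-streptavidin DELFIA read, Ex337/Em620 nm.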", "units": {"IC50": "nM"}, "values": [{"compound": "O=C(CCOCCc1cccc2c(=O)[nH]cnc12)N1CCN(c2ncc(C(F)(F)F)cn2)CC1", "note": "[Compound 16]", "IC50": "100 to 1000"}, {"compound": "O=C(COCCNc1cccc2c(=O)[nH]cnc12)N1CCN(c2ncc(C(F)(F)F)cn2)CC1", "note": "[Compound 17]", "IC50": "1000 to 10000"}, {"compound": "N#Cc1ccc(N2CCN(C(=O)c3cccc(Cc4cccc5c(=O)[nH]c(=O)[nH]c45)c3)CC2)nc1", "note": "[Compound 18]", "IC50": "100 to 1000"}, {"compound": "O=C(c1cccc(Cc2cccc3c(=O)[nH]c(=O)[nH]c23)c1)N1CCN(C(=O)C2CC2)CC1", "note": "[Compound 19]", "IC50": "1000 to 10000"}, {"compound": "N#Cc1ccc(N2CCN(C(=O)c3cccc(Cc4cccc5c4CCNC5=O)c3)CC2)nc1", "note": "[Compound 20]", "IC50": "100 to 1000"}, {"compound": "O=C1NCCc2c(Cc3cccc(C(=O)N4CCN(C(=O)C5CC5)CC4)c3)cccc21", "note": "[Compound 21]", "IC50": "1000 to 10000"}, {"compound": "O=C1NCCc2c(OCCOCC(=O)N3CCN(c4ncc(C(F)(F)F)cn4)CC3)cccc21", "note": "[Compound 22]", "IC50": "1000 to 10000"}, {"compound": "O=C1NCCc2c(CCOCCC(=O)N3CCN(c4ncc(C(F)(F)F)cn4)CC3)cccc21", "note": "[Compound 23]", "IC50": "100 to 1000"}, {"compound": "N#Cc1ccc(N2CCN(C(=O)c3cccc(Cn4ncc5c(=O)[nH]ncc54)c3)CC2)nc1", "note": "[Compound 24]", "IC50": "100 to 1000"}, {"compound": "O=C(c1cccc(Cc2cccc3c(=O)[nH]ncc23)c1)N1CCN(c2ncc(C(F)(F)F)cn2)CC1", "note": "[Compound 25]", "IC50": "≤ 100"}, {"compound": "N#Cc1ccc(N2CCN(C(=O)c3cccc(Cc4cccc5c(=O)[nH]ncc45)c3)CC2)cc1", "note": "[Compound 26]", "IC50": "1000 to 10000"}, {"compound": "O=C(c1cccc(Cc2cccc3c(=O)[nH]ncc23)c1)N1CCN(c2ccccc2)CC1", "note": "[Compound 27]", "IC50": "1000 to 10000"}, {"compound": "N#Cc1ccc(N2CCCN(C(=O)c3cccc(Cc4cccc5c(=O)[nH]ncc45)c3)CC2)nc1", "note": "[Compound 28]", "IC50": "100 to 1000"}, {"compound": "N#Cc1ccc(N2CCN(C(=O)c3cccc(Oc4cccc5c(=O)[nH]ncc45)c3)CC2)nc1", "note": "[Compound 29]", "IC50": "100 to 1000"}, {"compound": "N#Cc1ccc(N2CCN(C(=O)c3cccc(Nc4cccc5c(=O)[nH]ncc45)c3)CC2)nc1", "note": "[Compound 30]", "IC50": "≤ 100"}, {"compound": "N#Cc1ccc(N2CCN(C(=O)c3ccc(Cc4cccc5c(=O)[nH]ncc45)cc3)CC2)nc1", "note": "[Compound 32]", "IC50": "1000 to 10000"}, {"compound": "CC(C)(COCC(=O)N1CCN(c2ncc(C(F)(F)F)cn2)CC1)Oc1cccc2c(=O)[nH]ncc12", "note": "[Compound 34]", "IC50": "1000 to 10000"}, {"compound": "O=C(CCCCOc1cccc2c(=O)[nH]ncc12)N1CCN(c2ncc(C(F)(F)F)cn2)CC1", "note": "[Compound 35]", "IC50": "100 to 1000"}, {"compound": "O=C(NCCCOc1cccc2c(=O)[nH]ncc12)N1CCN(c2ncc(C(F)(F)F)cn2)CC1", "note": "[Compound 36]", "IC50": "1000 to 10000"}, {"compound": "O=C(CCCOc1cccc2c(=O)[nH]ncc12)N1CCN(c2ncc(C(F)(F)F)cn2)CC1", "note": "[Compound 37]", "IC50": "1000 to 10000"}, {"compound": "N#Cc1ccc(N2CCN(C(=O)Cc3cccc(Cc4cccc5c(=O)[nH]ncc45)c3)CC2)nc1", "note": "[Compound 38]", "IC50": "1000 to 10000"}, {"compound": "N#Cc1ccc(N2CCN(S(=O)(=O)c3cccc(Cc4cccc5c(=O)[nH]ncc45)c3)CC2)nc1", "note": "[Compound 39]", "IC50": "1000 to 10000"}, {"compound": "N#Cc1ccc(N2CCN(C(=O)c3cccc(COc4cccc5c(=O)[nH]ncc45)c3)CC2)nc1", "note": "[Compound 40]", "IC50": "100 to 1000"}, {"compound": "N#Cc1ccc(N2CCN(C(=O)c3ccc(COc4cccc5c(=O)[nH]ncc45)cc3)CC2)nc1", "note": "[Compound 41]", "IC50": "1000 to 10000"}, {"compound": "N#Cc1ccc(N2CCN(C(=O)c3cccc(OCCc4cccc5c(=O)[nH]ncc45)c3)CC2)nc1", "note": "[Compound 42]", "IC50": "≤ 100"}, {"compound": "CN(CCOCC(=O)N1CCN(c2ncc(C(F)(F)F)cn2)CC1)c1cccc2c(=O)[nH]ncc12", "note": "[Compound 43]", "IC50": "100 to 1000"}, {"compound": "N#Cc1ccc(N2CCN(C(=O)CCOCCN3CCCc4c3cn[nH]c4=O)CC2)nc1", "note": "[Compound 44]", "IC50": "≤ 100"}, {"compound": "O=C(CCOCCc1cccc2c(=O)[nH]c(=O)[nH]c12)N1CCN(c2ncc(C(F)(F)F)cn2)CC1", "note": "[Compound 45]", "IC50": "≤ 100"}, {"compound": "N#Cc1ccc(N2CCN(C(=O)c3cccc(Cc4cccc5c4NCNC5=O)c3)CC2)nc1", "note": "[Compound 46]", "IC50": "100 to 1000"}, {"compound": "O=C1NCNc2c(OCCOCC(=O)N3CCN(c4ncc(C(F)(F)F)cn4)CC3)cccc21", "note": "[Compound 47]", "IC50": "1000 to 10000"}]}]}
